Results on 2 compounds are retold here after patent publication US20220072128A1, “ULTRASOUND-INDUCED CONVECTION FOR DRUG DELIVERY AND TO DRIVE GLYMPHATIC OR LYMPHATIC FLOWS” (The Board of Trustees of the Leland Stanford Junior …, priority 2020, published 2022).

The nature of data set [1]: Quantitative T1-mapping MRI of glymphatic transport of intrathecally (cisterna magna) injected Gd-chelate into the brain, transcranial ultrasound vs sham. It counts as in vivo, rat. On the set-up: mean gadolinium-enhanced volume: unit not given here. The method, then: (§1) Animals. The Institutional Animal Care and Use Committees of Stanford University approved all animal experiments. Tests were performed in 42 male Long-Evans rats with bodyweight 300-350 gm (Charles River Laboratories, Wilmington, Mass., USA). Animals were randomly assigned to one of two groups: (1) no treatment (Sham), and (2) treatment (Ultrasound). Ultrasound (0.25 MI in situ, 7.7% duty cycle for 10 min) or sham was applied transcranially throughout the brain (FIG. 1A). Before each procedure, the fur on the neck was shaved and a cisterna magna injection of a gadolinium (Gd) chelate (Multihance, Bracco Diagnostics, NJ, USA) was performed while the animal was anesthetized under isoflurane. The body temperature, cardiac and respiratory rates, and O2 saturation were monitored throughout the experiment and the isoflurane level was titrated to keep these parameters constant; environmental heating was used to help maintain body temperature. Localizer, FLASH-T1-3D, T1-mapping, and T2*-weighted MR images were taken to visualize glymphatic transport across the brain, to quantify Gd-chelate kinetic parameters, and to evaluate for parenchymal damage. In separate cohorts, either of two different sized optical tracers, a small molecule (IR800CW Carboxylate, LICOR, Lincoln, Nebr., USA; ˜1 kDa) or a large molecule (Panitumumab-IRDye800: ˜150 kDa, 5 nM, produced under GMP at the Leidos Biomedical Research Center, Frederick, Md., USA) (39) were co-delivered with the Gd-chelate to model the delivery of similar-sized therapeutic agents.
Intrathecal Cisterna Magna Injection For anesthesia, the animals were induced with 5% isoflurane in oxygen using an induction chamber and then switched to a maintenance dose of 2%. The animal was positioned in a stereotaxic frame (Stoelting, Wood Dale, Ill., USA), immobilized with ear bars, and then the head flexed to 45 degrees. A 27-gauge catheter (Butterfly Needle, SAI Infusion Technology, Lake Villa, Ill., USA) was inserted in the cisterna magna to inject up to 80 μl of tracers (Gd-chelate: MultiHance, gadobenate dimeglumine; Bracco Diagnostics Inc, NJ, USA; 0.21 ml/kg) slowly over 30 seconds. To model the delivery of similar-sized therapeutic agents, two different sized molecules, free dye (IRDye800CW Carboxylate, LICOR, Lincoln, Nebr., USA; ˜1 kDa; 36 nmol/kg) and IR dye-conjugated antibody (Panitumumab-IRDye800: ˜150 kDa; 0.133 mg/kg) were co-delivered with the Gd-chelate. The respiratory rate (45-50 breaths per minute), and normal body temperature (36.5-37.5° C.) were maintained throughout the experiment through titration of isoflurane dose and with environmental heating.
Magnetic Resonance Imaging Protocol. Magnetic Resonance Imaging (MRI) (an actively-shielded Bruker 7T horizontal bore scanner (Bruker Corp, Billerica Mass.), with International Electric Co. (IECO) gradient drivers, a 120 mm ID shielded gradient insert (600 mT/m, 1000 T/m/s), AVANCE III electronics; 8-channel multi-coil RF and multinuclear capabilities and volume RF coils; and the supporting Paravision 6.0.1 platform) was used to visualize glymphatic transport of Gd-chelate into the brain and to make quantitative T1-maps. The facility provides isoflurane anesthesia in medical-grade oxygen, and physiological monitoring of the subject including ECG, pulse oximetry, respiration, and temperature feedback for core body temperature maintenance by warm airflow over the animal. Following cisterna magna contrast agent injection, an MRI compatible animal FUS system (Image Guided Therapy—IGT, Pessac, France) was used in all experiments. Animals were placed in a prone position in a plastic stereotactic frame that has a single channel radiofrequency transmit-receive head coil (IGT) which is coupled to the FUS system. Animals were immobilized in the frame with ear bars and a bite bar. Noninvasive, MRI-compatible monitors for the respiratory rate and body temperature were used during the imaging session. […]

Data set [2] in a line: Near-infrared fluorescence imaging of brain slices after intrathecal co-delivery of optical tracers, transcranial ultrasound vs sham. Conditions: about 2 hours after intrathecal delivery, 10 min ultrasound. It counts as in vivo, rat. The protocol: as §1, with “In separate cohorts, either of two different sized optical tracers, a small molecule (IR800CW Carboxylate, LICOR, Lincoln, Nebr., USA; ˜1 kDa) or a large molecule (Panitumumab-IRDye800: ˜150 kDa, 5 nM, produced under GMP at the Leidos Biomedical Research Center, Frederick, Md., USA) (39) were co-delivered with the Gd-chelate to model the delivery of similar-sized therapeutic agents.” left out
Fluorescence Imaging. […] Tissue sections were thaw-mounted on microscope glass slides (Fisher, Pittsburgh, Pa.), fixed the tissue-slides using 4% paraformaldehyde, and applied DAPI for fluorescence imaging. […]

“Also recorded” adds a separate entry of the source.

For `CNC[C@H](O)[C@@H](O)[C@H](O)[C@H](O)CO.CNC[C@H](O)[C@@H](O)[C@H](O)[C@H](O)CO.O=C([O-])CN(CCN(CC(=O)[O-])CC(=O)O)CCN(CC(=O)O)C(COCc1ccccc1)C(=O)[O-].[Gd+3]` (stereo not drawn) [Gd-chelate, gadobenate dimeglumine], the “time at which perivascular influx of CSF into the brain is initially observed” value in data set [1] (3D T1w MRI, after intrathecal administration) worked out at 12 min. Moreover, the “brain volume containing a resolvable amount of contrast agent, ultrasound versus sham” value in data set [1] (T1-mapping MRI over time) is “significantly larger volume of brain”. For the same compound, the “time by which cleared from the CSF-ISF spaces” value in data set [1] (T1w MRI after cisternal injection) was ≤ 3 h. Further, the “Gd-chelate deposition in the brain” value in data set [1] (T1w MRI, 24-72 h after ultrasound intervention) was “no any evidence of Gd deposition; also recorded: no prolonged Gd-chelate deposition”. The mean gadolinium-enhanced volume was 0.18±0.07 in data set [1] (Ultrasound cohort (0.25 MI, 10 min, applied at 23 min), 12 min baseline); 0.43±0.16 in data set [1] (Ultrasound cohort, 35 min); 0.44±0.17 in data set [1] (Ultrasound cohort, 70 min); 0.45±0.25 in data set [1] (Ultrasound cohort, 105 min); 0.18±0.24 in data set [1] (Ultrasound cohort, 180 min); 0.17±0.24 in data set [1] (Ultrasound cohort, 240 min). The mean gadolinium-enhanced volume in data set [1] (sham cohort, 12 min after intrathecal injection, mean ± S.D.) turned out to be 0.17±0.084; in data set [1] (sham cohort, 35 min), 0.25±0.15; in data set [1] (sham cohort, 70 min) it was 0.22±0.1; in data set [1] (sham cohort, 105 min), 0.23±0.11; in data set [1] (sham cohort, 180 min) it was 0.11±0.12; in data set [1] (sham cohort, 240 min), 0.06±0.04. Besides, in data set [1] (low-intensity transcranial scanning ultrasound vs sham), the “increase of peak parenchymal uptake with ultrasound” value was 72-101%. In addition, the “clearance timeline from the brain” value in data set [1] (with ultrasound) was 3 h. Besides, in data set [1] (with ultrasound, 3 h post-injection), the “residual tracer in the brain” value is reported as “increased residual tracer in the brain”. The “time of peak parenchymal uptake” value in data set [1] (with ultrasound, from injection) is on record as 105 min. In addition, the “time of peak brain concentration” value in data set [1] (without further intervention (no ultrasound), after intrathecal injection) is “approximately 35 min”. Further, in data set [1] (without further intervention, from injection), the “time to clear from the brain interstitial compartment” value is given as ≤ 3 h.
Take “Panitumumab-IRDye800: therapeutic antibody panitumumab (~150 kDa, EGFR-targeted) conjugated with the IR dye; large optical tracer”: the “brain penetration (near-infrared dye-enhanced area), ultrasound compared to sham” value in data set [2] is “significantly greater degree with ultrasound”; in data set [2] (listed as panitumumab), “penetrated to a greater degree into the brain”.
